Assay results: patent US7048907B2, “Synthesis, compositions and methods for the measurement of the concentration of stable-isotope labeled compounds in life forms and life form excretory products” (BioPhysics Assay Laboratory, Inc., priority 2001, dated 2006)

Assays:
[1] = Stability of chelates to autoclaving (CM-Sephadex assay); format: physicochemical; conditions: for % of total / dpm: autoclaved 30 minutes at 121° C.
Method: A sample comprising 5 ml of Sm-DTPA, La-DTPA, and Eu-DTPA prepared in Examples 9, 10, and 11 were placed in 10 ml glass bottles, each capped with a grey butyl rubber cap, and the caps were crimped. Samples were autoclaved for 30 minutes at 121° C.
Five ml of each of Sm-DOTA, La-DOTA, and Eu-DOTA prepared in Examples 13, 14, and 15 were placed in 10 ml glass bottles capped with a grey butyl rubber cap and crimped. Samples were autoclaved for 30 minutes at 121° C. Samples were allowed to cool to room temperature and were assayed as described in Examples 25.

[2] = Assay of chelate on carboxymethyl (CM) Sephadex column (chelate formation, charge); format: physicochemical
[3] = Kinetics of blood depletion and urine accumulation of chelates in the rat; format: in vivo; conditions: average of three rats
Method: One half ml of Sm-DTPA (0.01 mg/kg), dissolved in saline (pH 7), is injected into the tail vein of three rats. Samples of blood are obtained at 10, 30 and 60 minutes following injection and analyzed for Sm-DTPA by neutron activation. The percent of starting amount of the Sm-DTPA at each time interval is presented in Table 18 (last column on right). Similarly, the accumulation of Sm-DTPA in the rat urine at two times is shown in the last column of Table 18.
One half ml of Technetium-99m-DTPA (1 millicurie), Gd-DTPA (0.05 mg/kg), and Sm-DTPA (0.01 mg/kg) are each dissolved in saline (pH 7), and are injected simultaneously into the tail vein of three rats. Samples of blood are obtained at 10, 30 and 60 minutes following injection and analyzed for ^99mTc-DTPA (gamma counting), Gd-DTPA (T1 relaxation) and Sm-DTPA (neutron activation).
One half ml of Sm-DTPA, La-DTPA and Eu-DTPA (each 0.01 mg/kg), dissolved in saline (pH 7) are injected simultaneously into the tail vein of three rats. Samples of blood are obtained at 10, 30 and 60 minutes following injection and analyzed for each element by neutron activation.
Samples of Sm-DTPA, La-DTPA and Eu-DTPA (0.5 ml; 0.01 mg/kg), each dissolved in saline (pH 7), are injected sequentially at 0, 20, and 40 minutes into the tail vein of three rats. Samples of blood are obtained at 10, 30 and 60 min following each injection and analyzed for each element by neutron activation.

[4] = Fraction 1: sample diluted 1:10 then 2-3 ml 0.01M Tris pH 7.5 (eluate)
[5] = Fraction 2: 3 ml 0.01M Tris pH 7.5
[6] = Fraction 3: column and contents (retained)
[7] = Fraction 1: 3 ml 0.01M Tris pH 7.5 before sample
[8] = Fraction 2: 1 ml sample then 3 ml 0.01M Tris pH 7.5 (eluate)
[9] = Fraction 3: further 3 ml 0.01M Tris pH 7.5
[10] = Fraction 4: column and contents (retained)

Question: With `O=C([O-])CN(CCN(CC(=O)[O-])CC(=O)[O-])CCN(CC(=O)[O-])CC(=O)[O-].[Eu+3]` [Eu-DTPA] as the compound, how does the “% eluted from CM-Sephadex column following autoclaving” value [1] read?
Answer: Its value is 100%.

Question: And the “% of total” value [1, 4]?
Answer: The value was 97 % of total.

Question: And the dpm [1, 4]?
Answer: Its dpm is 380954 dpm.

Question: What about the “% of total” value [1, 5] of the same compound?
Answer: Its value is 3 % of total.

Question: And the dpm [1, 5]?
Answer: The dpm was 13226 dpm.

Question: What about the “% of total” value [1, 6] of the same compound?
Answer: The value was 0 % of total.

Question: And the dpm [1, 6]?
Answer: Its dpm is 0 dpm.

Question: And the “% eluted from the CM-Sephadex column” value [2]?
Answer: Its value is 100%.

Question: And the “% of total” value [2, 7]?
Answer: Its value is 0 % of total.

Question: And the dpm [2, 7]?
Answer: The dpm was 0 dpm.

Question: What about the “% of total” value [2, 8] of the same compound?
Answer: Its value is 100 % of total.

Question: What about the dpm [2, 8] of the same compound?
Answer: Its dpm is 22115 dpm.

Question: What about the “% of total” value [2, 9] of the same compound?
Answer: Its value is 0 % of total.

Question: And the dpm [2, 9]?
Answer: The dpm was 0 dpm.

Question: And the “% of total” value [2, 10]?
Answer: The value was 0 % of total.

Question: What about the dpm [2, 10] of the same compound?
Answer: Its dpm is 0 dpm.

Question: And the “time within which the chelate forms” value ([2]; room temperature, Tris pH 7.5)?
Answer: Its value is no more than 5 min.

Question: What about the “Percent of initial injection, blood” value ([3]; blood 10 min, Sm-DTPA, La-DTPA and Eu-DTPA (each 0.01 mg/kg i.v.) simultaneously administered (Example 31)) of the same compound?
Answer: Its value is 87% of initial injection.

Question: And the “Percent of initial injection, blood” value ([3]; blood 10 min after each injection, Sm-DTPA, La-DTPA, Eu-DTPA (0.01 mg/kg i.v.) sequentially administered at 0, 20, 40 minutes (Example 32))?
Answer: Its value is 87% of initial injection.

Question: And the “Percent of initial injection, blood” value ([3]; blood 30 min, Sm-DTPA, La-DTPA and Eu-DTPA simultaneously administered (Example 31))?
Answer: The value was 62% of initial injection.

Question: What about the “Percent of initial injection, blood” value ([3]; blood 30 min after each injection, sequentially administered (Example 32)) of the same compound?
Answer: The value was 64% of initial injection.

Question: What about the “Percent of initial injection, blood” value ([3]; blood 60 min, Sm-DTPA, La-DTPA and Eu-DTPA simultaneously administered (Example 31)) of the same compound?
Answer: Its value is 33% of initial injection.

Question: And the “Percent of initial injection, blood” value ([3]; blood 60 min after each injection, sequentially administered (Example 32))?
Answer: Its value is 34% of initial injection.

Question: And the “Percent of initial injection, urine” value ([3]; urine 30 min, Sm-DTPA, La-DTPA and Eu-DTPA simultaneously administered (Example 31))?
Answer: Its value is 21% of initial injection.

Question: What about the “Percent of initial injection, urine” value ([3]; urine 30 min, sequentially administered (Example 32)) of the same compound?
Answer: The value was 26% of initial injection.

Question: And the “Percent of initial injection, urine” value ([3]; urine 180 min, Sm-DTPA, La-DTPA and Eu-DTPA simultaneously administered (Example 31))?
Answer: Its value is 96% of initial injection.

Question: And the “Percent of initial injection, urine” value ([3]; urine 180 min, sequentially administered (Example 32))?
Answer: The value was 97% of initial injection.
